Literature values in patent US4554271A, “Use of high doses of derivatives of 6α-methylprednisolone for the acute treatment of stroke syndrome” (The Upjohn Company, priority 1984, dated 1985).
Counter-ions that a name gives are not always drawn. Like-named read-outs stand apart in the source and are kept apart here.

Experiments:
[1] = test system: canine middle cerebral artery (MCA); conditions: canine MCA embolization, embolectomy at 6 hours; DMSO 2 gm/kg
(Na^+ +K^+)-ATPase [2] = conditions: cat spinal cord; large intravenous doses
lipid peroxide formation = conditions: cat spinal cord; large intravenous doses
motor neuron = conditions: cat; large intravenous doses
[3] = test system: cyclic guanosine 3',5'-monophosphate (cyclic GMP); conditions: cat
(Na^+ +K^+)-ATPase [4] = conditions: for (Na^+ +K^+)-ATPase activity in the injured cord: cat
[5] = test system: spinal cord-injured animals; conditions: comparable doses (15 to 30 mg/kg) soon after injury; other studies
cerebral ischemia = conditions: anesthetized gerbil; 35 mg/kg; bilateral occlusion of the carotid arteries
[6] = test system: adenylate cyclase systems
[7] = test system: cardiac, renal, and hepatic ischemia; conditions: in vivo
[8] = single 30-mg/kg dose
[9] = test system: ischemia-induced neurological deficits; conditions: gerbils; title of cited paper
[10] = 15- or 30-mg/kg intravenous dose given 30 minutes after trauma, earlier studies

C[S+](C)[O-] [DMSO, dimethyl sulfoxide]
infarction of the brain [1]: no infarction

C[C@H]1C[C@@H]2[C@H]([C@@H](O)C[C@@]3(C)[C@H]2CC[C@]3(O)C(=O)COC(=O)CCC(=O)O)[C@@]2(C)C=CC(=O)C=C12 [methylprednisolone sodium succinate, 1-dehydro-6α-methylhydrocortisone 21-hemisuccinate sodium salt]
spinal cord (Na^+ +K^+)-ATPase activity ((Na^+ +K^+)-ATPase [2]): enhancement | lipid peroxide formation (lipid peroxide formation): attenuation | impulse conduction along the myelinated portion of the motor axon (motor neuron): accelerated | motor neuron resting membrane potentials (motor neuron): hyperpolarization

C[C@H]1C[C@@H]2[C@H]([C@@H](O)C[C@@]3(C)[C@H]2CC[C@]3(O)C(=O)CO)[C@@]2(C)C=CC(=O)C=C12 [methylprednisolone, 1-Dehydro-6α-methylhydrocortisone]
duration of its pharmacological actions (cat, single intravenous administration): roughly 3 hours | spinal cord tissue levels of methylprednisolone at which each of the effects is apparent (cat, single intravenous dose of 30 mg/kg): around 1.3 μg/gm wet weights | half-life in cat spinal cord (single intravenous administration, 30 mg/kg): roughly 3 hours | lipid peroxidation at 1 hour after injury (lipid peroxidation; [10]): significantly reduce | injury-induced increase in fluorescence (lipid peroxy products) in spinal segment (lipid peroxidation; cat, 15 or 30 mg/kg i.v. at 30 minutes after injury, read at 1 hour): completely prevented | injury-induced increase in cyclic GMP content in spinal segment ([3]; 15 or 30 mg/kg i.v. at 30 minutes after injury, read at 1 hour): completely prevented | elevation in cyclic GMP ([3]; 60-mg/kg dose): did not prevent | (Na^+ +K^+)-ATPase activity at 1 hour after injury ((Na^+ +K^+)-ATPase [4]; [10]): enhance | (Na^+ +K^+)-ATPase activity in the injured cord ((Na^+ +K^+)-ATPase [4]; 30-mg/kg dose): striking increase | (Na^+ +K^+)-ATPase activity in the injured cord ((Na^+ +K^+)-ATPase [4]; 60-mg/kg dose): depression in activity | recovery and tissue preservation in spinal cord-injured animals [5]: significantly greater | survival after cerebral ischemia (cerebral ischemia): improved survival | damaging effect (adenylate cyclase systems) of 60 minutes occlusion plus 15 minutes recirculation ([6]; barbiturate-anesthetized gerbils, pretreatment 30 mg/kg, 30 min. prior to carotid ligation): prevented | chronic (7 days) enzyme damage elicited by 15 minutes of bilateral stroke ([6]; gerbils, preliminary work): prevented | relieving cardiac, renal, and hepatic ischemia [7]: effective | harmful effects [8]: virtually without harmful effects

C=CCN1CC[C@]23c4c5ccc(O)c4O[C@H]2C(=O)CC[C@@]3(O)[C@H]1C5 [naloxone]
reversal of ischemia-induced neurological deficits [9]: Failure
